Experimental data: patent publication US6610686B1, “Use of pirenoxine for the protection of corneal tissues in photokeractomy” (Ausimont S.p.A., priority 1999, dated 2003)

Key:
[1] = system: rabbit corneas incubated with f-MLP-stimulated autologous macrophages; assay: In vitro protection of whole corneas against ROS from f-MLP-stimulated autologous rabbit macrophages; assay type: cell-based; conditions: 10^−5 M pirenoxine, 10^−7 M f-MLP stimulated macrophages, two hours at 37° C.
Protocol: In order to evaluate the inhibition exerted by pirenoxine against the oxidizing activity of macrophage produced ROS at level of the cornea, the following procedure was carried out: (a) broncho-alveolar washing of the rabbit to obtain the macrophages; (b) abstraction of the cornea from the rabbit eye; (c) incubation of the corneas with 10^−7 M f-MLP stimulated or not stimulated macrophages (800000 cells/well) for two hours at 37° C., 5 % CO2 in presence and in absence of 10^−5 M pirenoxine; (d) separation and homogenization of the epithelial and endothelial corneal cells and subsequent determination of fluorescence as described in b, c, d and f steps of the above methodology.

[2] = system: rabbit corneas; assay: In vivo effect on rabbit corneas after intrastromal injection of UV irradiated ferritin; conditions: two drops of 0,005% pirenoxine every hour 8 times a day over 4 days, corneas at 5th day
Protocol: (a) rabbits were anaesthetized by low pentobarbital doses (20 mg/kg); (b) 25 μl of 50 μM ferritin in 0,15 M NaCl were injected in the stroma of the cornea by a 0,33×13 mm/29G insulin syringe whereas the controls were treated with 25 μl physiological solution; (c) in the eyes every hour two drops (1 drop=30 μl) of 0,005% pirenoxine in 0,145 M NaCl 8 times a day over 4 days were instilled, whereas the controls were treated only with the solvent, in the same amount and frequency; (d) at the 5th day the animals were sacrificed using a pentobarbital overdose (100 mg/kg); (e) the corneas were abstracted and the tissue cells separated and collected according to the procedure described in the ex vivo experiment; (f) the conjugated dienes and fluorescent soluble lipid contained in suitable homogenate aliquots were determined.
In vivo conjugated diene and lipid soluble fluorescence substance formation in corneas 5 days after the rabbit eyes were submitted to intrastromal injection of UV-irradiated ferritin and topical instillation of pirenoxine solution (2 drops every hour for 8 hr over 4 days)

[3] = system: epithelium and endothelium homogenates of rabbit corneas; assay: In vitro Fe(III)-ascorbic acid induced lipid peroxidation in epithelium and endothelium homogenates of rabbit corneas; assay type: biochemical; conditions: homogenate + 10 μM FeCl3 and ascorbic acid, 27° C., 30 minutes, 10^−5 M pirenoxine; mean ± SEM
Excerpt: The experimental procedure for the evaluation of the inhibiting action against the lipid-peroxidation exerted by pirenoxine in cornea epithelial and endothelial cells made use of Fe(III)-ascorbic acid system to induce the peroxidative phenomenon. The oxidative attack on membrane lipids was confirmed by the spectrophotometric determinations of both the conjugated dienes and fluorescent lipid-soluble substances which, as known, are generated by the oxidative degradation of lipid molecules.
Used experimental procedure included the following steps: a) abstraction of the cornea from the eye of male pigmented rabbits suitably selected and prepared for the study; b) incubation of the latter in 100 μM phosphate buffer, pH 7,5, in the presence of 1000 U collagenase and 5 μM CaCl2 for 20 hours at 37° C.; c) centrifugation at 35000 rpm at 0° C. for 10 minutes and washings of the sediment with phosphate buffer; d) homogenization of the cellular sediment in 1 ml of buffer, pH 7,4 (10% w/v); e) incubation of a suitable homogenate aliquot with 10 μM FeCl3 and ascorbic acid in phosphate buffer, pH 7,4, at 27° C. for 30 minutes in presence and in absence of 10^−5 M pirenoxine; f) extraction of the lipid-soluble substances using chloroform/methanol mixture (2:1 v/v). […]

[4] = reconstituted aqueous solution, ambient temperature; cited from earlier work
[5] = system: epithelial corneal cells (SIRC); assay: In vitro protection of UV312 irradiated epithelial corneal cells (SIRC); assay type: cell-based; conditions: for Lipid-soluble fluorescent substances, U/mg protein / Lipid-soluble fluorescent substances, U/well: UV312 80 mJ/cm^2, 10^−5 pirenoxine, 17 hours at 37° C.
Protocol: The protective effect of pirenoxine on epithelial comeal cells (SIRC) irradiated for 36″ using UV312 light (80 mJ/cm^2), according to the following procedure: (a) the comeal cells were plated in 35 mm diameter wells; (b) at 80% confluency the cells were contacted with a medium at low (0,2%) serum content to inhibit the proliferation thereof during the experiment (c) the cells were irradiated with UV light in presence and in absence of 10^−5 pirenoxine, incubated at 37° C. for 17 hours and homogenized in 10 mM f) phosphate buffer, pH 7,4; (d) the lipid-soluble fluorescent substances and the proteins contained in suitable homogenate aliquots were determined.

For `O=C(O)c1cc(O)c2c3nc4ccccc4oc-3cc(=O)c2n1` [pirenoxine, 1-hydroxy-5-oxo-5H-pyrido-[3,2a]-phenoxazin-3-carboxylic acid], the “Induced fluorescence of lipid soluble substances (FIG. 1)” value [1] was “remarkably lower than the controls and are comparable to those of normal corneas (basal values)”, the Conjugated diene [2] was 1.7 Nmoles/hemicornea and the Fluorescence [2] was 4.4 Unit/hemicornea. The Conjugated dienes [3] was 2.77 ± 0.07 nmol/hemicornea, the “Fluorescence (fluorescent lipid-soluble substances)” value [3] was 5.22 ± 0.13 U/hemicornea and the “Storage time of reconstituted solution without degradation” value [4] was “about two weeks without degradation”. For the same compound, the “Lipid-soluble fluorescent substances, U/mg protein” value ([5]; Cells 14/01) was 2.76 U/mg protein, the “Lipid-soluble fluorescent substances, U/well” value ([5]; Cells 14/01) was 0.92 U/well and the “Lipid-soluble fluorescent substances, U/mg protein” value ([5]; Cells 17/12) was 9.08 U/mg protein. The “Lipid-soluble fluorescent substances, U/well” value ([5]; Cells 17/12) was 3.66 U/well, the “Lipid-soluble fluorescent substances, U/mg protein” value ([5]; Cells 20/12) was 7.35 U/mg protein and the “Lipid-soluble fluorescent substances, U/well” value ([5]; Cells 20/12) was 1.8 U/well. The “Lipid-soluble fluorescent substances relative to irradiated cells not protected by pirenoxine” value ([5]; UV312 irradiation, 10^−5 pirenoxine) was “notably lower (about two and half times)”.
